From patent EP0603240B1, “SAFENING HERBICIDAL PYRAZOLYLSULFONYLUREAS” (priority 1991, dated 1993)

Experiments:
Format in all cases: in vivo
corn [1] = assay: Example 13, Procedure II: Herbicide No. 1 + acetochlor (No. 6) with dichloroacetamide antidotes; conditions: Herbicide No.6 4.48 kg/ha alone, no antidote
Method: (§1) Containers were filled and compacted with a fumigated silt loam top soil to a depth of about 1.3 cm from the top of the container. A first container was designated as an untreated control, a second container was designated as a herbicide control, and a third container was designated as a herbicide + antidote test container. Each of the containers was seeded with a crop species. A measured amount of herbicide dispersed or dissolved in acetone was applied to a measured quantity of soil. To this same quantity of soil treated with herbicide, there was added a measured amount of antidote dispersed or dissolved in acetone. The quantity of soil treated with the herbicide and antidote was thoroughly mixed to incorporate the herbicide and antidote in the soil uniformly. The seed bed in the third container of soil was covered with the soil treated with the herbicide and antidote and the container was leveled. For each test series, the seed beds of the first and second containers were likewise covered by soil layers. the cover layer of the first container was not treated with herbicide or antidote.
(§2) The containers were then placed on a bench in a greenhouse and sub-irrigated as required for the duration of the test. […] Plant response is measured in terms of percent injury. Antidote efficacy is indicated as the difference in plant injury by the herbicide(s) without the antidote and with the antidote.
(§3) This procedure is the same as Procedure I, but modified in the manner that after incorporation of the chemicals (herbicide and antidote) the containers with the covered seedbed were treated with an initial overhead irrigation equivalent to 0.6 cm rainfall, then subsequently sub-irrigated as required on greenhouse benches.
In this example a plurality of dichloroacetamide antidotes were tested for their safening efficacy against a herbicidal composition comprising Herbicide No. 1 and a co-herbicide, acetochlor (Herbicide No. 6) in corn in the presence of velvetleaf. The procedure used in this example was Procedure II above.

corn [2] = assay: Example 12, Procedure II: Herbicide No. 1 + acetochlor (No. 6) with thirteen antidotes; conditions: Herbicide No.6 2.24 kg/ha alone, no antidote
Method: as §1, §2, §3
This example was designed to investigate the efficacy of thirteen different antidotes from different classes of chemistry as safeners against compositions of Herbicide No. 1 and acetochlor (Herbicide No. 6) as co-herbicide. Acetochlor is the active ingredient in the commercial herbicides GUARDIAN® and WENNER®.
The test procedure used in this example was Procedure II described above.

corn [3] = assay: Example 3, Procedure I: antidotes against Herbicide No. 1
Method: as §1, §2
(§4) This example details the results of tests with Antidote Nos. 12, 15 and 16 to safen Herbicide No. 1 over application rates ranging from 4.48 kg/ha down to 0.56 kg/ha, in corn in the presence of barnyardgrass. Procedure I described above was used in these tests.

corn [4] = assay: Example 4, Procedure I: Antidote Nos. 15 and 16 against Herbicide No. 1
Method: as §1, §2
(§5) This example describes tests with Antidote Nos. 15 and 16 to safen Herbicide No. 1 according to Procedure I using corn and the weeds barnyardgrass and velvetleaf as the test plants.

corn [5] = assay: Example 5, Procedure I: Herbicide No. 1 + alachlor (No. 7) with Antidote Nos. 15 and 16
Method: as §1, §2, §5
(§6) In the tests described in this example, the same procedure described in Example 4 was performed simultaneously therewith and under the same conditions, except that a co-herbicide, alachlor, was included in the same composition with Herbicide No. 1 and Antidote Nos. 15 and 16. Alachlor (Herbicide No. 7 herein) is the active ingredient in the commercial product LASSO® herbicide.

[6] = test system: barnyardgrass (Echinochloa crusgalli); assay: Example 4, Procedure I: Antidote Nos. 15 and 16 against Herbicide No. 1
Method: as §1, §2
(§7) In the series of greenhouse tests described below, for routine screening purposes the herbicide/antidote compositions were tested in crop/weed combinations involving corn as the crop and either or both of the weeds barnyardgrass (Echinochloa crusgalli), a monocotyledonous weed, and velvetleaf (Abutilon theophrasti), a dicotyledonous weed. In the tables below, these weeds are indicated by the symbols "BYG" and "VL", respectively.
as §5

[7] = test system: velvetleaf (Abutilon theophrasti); assay: as above
Method: as §1, §2, §7, §5

[8] = test system: barnyardgrass (Echinochloa crusgalli); assay: Example 3, Procedure I: antidotes against Herbicide No. 1
Method: as §1, §2, §7, §4

[9] = test system: barnyardgrass (Echinochloa crusgalli); assay: Example 5, Procedure I: Herbicide No. 1 + alachlor (No. 7) with Antidote Nos. 15 and 16
Method: as §1, §2, §7, §5, §6

[10] = test system: velvetleaf (Abutilon theophrasti); assay: as above
Method: as §1, §2, §7, §5, §6

corn [11] = assay: Example 1, greenhouse Procedure II: antidotes against Herbicide No. 1; conditions: Herbicide No. 1, Table 1
Method: as §1, §2, §3, §7
This example was designed to investigate the antidotal efficacy of a plurality of antidotes against Herbicide No. 1 in corn in the presence of barnyard grass and velvetleaf. The antidotes used in this example were Antidote Nos. 1-10, 12, 13 and 15.
The test in this example was conducted as described above for Procedure II. The antidotes were applied to the soil cover layer by pipet after spraying on the herbicide followed by incorporation and simulated rain.

corn [12] = assay: Example 17, Procedure II: Herbicide No. 1 + vernolate (No. 11) with antidotes; conditions: Table 17
Method: as §1
as §2, with “antidote. […]” for “antidote.”

[13] = Herb. No. 1 4.48 kg/ha + antidote 0.56 kg/ha
[14] = Herb. No. 1 4.48 kg/ha + antidote 2.24 kg/ha
[15] = Herb. No. 1 6.72 kg/ha + antidote 0.56 kg/ha
[16] = Herb. No. 1 6.72 kg/ha + antidote 2.24 kg/ha
[17] = Herb. No. 1 0.56 kg/ha + antidote 0.56 kg/ha
[18] = Herb. No. 1 0.56 kg/ha + antidote 2.24 kg/ha
[19] = Herb. No. 1 0.56 kg/ha + antidote 8.96 kg/ha
[20] = Herb. No. 1 1.12 kg/ha + antidote 0.56 kg/ha
[21] = Herb. No. 1 1.12 kg/ha + antidote 2.24 kg/ha
[22] = Herb. No. 1 1.12 kg/ha + antidote 8.96 kg/ha
[23] = Herb. No. 1 2.24 kg/ha + antidote 0.56 kg/ha
[24] = Herb. No. 1 2.24 kg/ha + antidote 2.24 kg/ha
[25] = Herb. No. 1 2.24 kg/ha + antidote 8.96 kg/ha
[26] = Herb. No. 1 4.48 kg/ha + antidote 8.96 kg/ha
[27] = antidote 8.96 kg/ha alone, no herbicide
[28] = Herbicide No.1 4.48 + No.7 0.56 kg/ha + antidote 0.56 kg/ha
[29] = Herbicide No.1 4.48 + No.7 0.56 kg/ha + antidote 2.24 kg/ha
[30] = Herbicide No.1 4.48 + No.7 2.24 kg/ha + antidote 0.56 kg/ha
[31] = Herbicide No.1 4.48 + No.7 2.25 kg/ha + antidote 2.24 kg/ha
[32] = Herbicide No.1 6.72 + No.7 0.56 kg/ha + antidote 0.56 kg/ha
[33] = Herbicide No.1 6.72 + No.7 0.56 kg/ha + antidote 2.24 kg/ha
[34] = Herbicide No.1 6.72 + No.7 2.24 kg/ha + antidote 0.56 kg/ha
[35] = Herbicide No.1 6.72 + No.7 2.25 kg/ha + antidote 2.24 kg/ha

For `CCOCN(C(=O)CCl)c1c(C)cccc1CC` [Herbicide No.6], the “% Injury Corn” value (corn [1]) was 50% and the “% Injury Corn” value (corn [2]) was 25%.

With `CC1(C)OC(c2cccnc2)CN1C(=O)C(Cl)Cl` (stereo not drawn) [Antidote No. 16, Pyridine, 3-[3-(dichloroacetyl)-2,2-dimethyl-5-oxazolidinyl]-] the “safening of corn, assessment in words” value (corn [3]; Herbicide No. 1, Table 3) was “excellent protection for corn”, the “safening of corn, assessment in words” value (corn [4]; Herbicide No. 1, Table 4) was “substantial safening of Herbicide No. 1” and the “safening of corn, assessment in words” value (corn [5]; Herbicide Nos. 1 and 7, Table 5) was “substantial safening of corn”.

For `CC1(C)OC(c2cccnc2)CN1C(=O)C(Cl)Cl` (stereo not drawn) [compound 16], the “% Injury BYG” value [6, 13] was 95%, the “% Injury BYG” value [6, 14] was 95% and the “% Injury BYG” value [6, 15] was 95%. The “% Injury BYG” value [6, 16] was 95%, the “% Injury VL” value [7, 13] was 95% and the “% Injury VL” value [7, 14] was 95%. For the same compound, the “% Injury VL” value [7, 15] was 95%, the “% Injury VL” value [7, 16] was 95% and the “% Injury BYG” value [8, 17] was 65%. For the same compound, the “% Injury BYG” value [8, 18] was 60%, the “% Injury BYG” value [8, 19] was 50% and the “% Injury BYG” value [8, 20] was 70%. The “% Injury BYG” value [8, 21] was 80%, the “% Injury BYG” value [8, 22] was 85% and the “% Injury BYG” value [8, 23] was 85%. For the same compound, the “% Injury BYG” value [8, 24] was 90%, the “% Injury BYG” value [8, 25] was 80% and the “% Injury BYG” value [8, 13] was 75%. For the same compound, the “% Injury BYG” value [8, 14] was 80%, the “% Injury BYG” value [8, 26] was 95% and the “% Injury BYG” value [8, 27] was 0%. The “% Injury Corn” value (corn [3]; [17]) was 0%, the “% Injury Corn” value (corn [3]; [18]) was 0% and the “% Injury Corn” value (corn [3]; [19]) was 0%. For the same compound, the “% Injury Corn” value (corn [3]; [20]) was 0%, the “% Injury Corn” value (corn [3]; [21]) was 0% and the “% Injury Corn” value (corn [3]; [22]) was 0%. For the same compound, the “% Injury Corn” value (corn [3]; [23]) was 5%, the “% Injury Corn” value (corn [3]; [24]) was 0% and the “% Injury Corn” value (corn [3]; [25]) was 0%. The “% Injury Corn” value (corn [3]; [13]) was 5%, the “% Injury Corn” value (corn [3]; [14]) was 5% and the “% Injury Corn” value (corn [3]; [26]) was 5%. For the same compound, the “% Injury Corn” value (corn [3]; [27]) was 0%, the “% Injury Corn” value (corn [4]; [13]) was 70% and the “% Injury Corn” value (corn [4]; [14]) was 15%. The “% Injury Corn” value (corn [4]; [15]) was 35%, the “% Injury Corn” value (corn [4]; [16]) was 30% and the “% Injury Corn” value (corn [5]; [28]) was 48%. For the same compound, the “% Injury Corn” value (corn [5]; [29]) was 18%, the “% Injury Corn” value (corn [5]; [30]) was 53% and the “% Injury Corn” value (corn [5]; [31]) was 40%. For the same compound, the “% Injury Corn” value (corn [5]; [32]) was 43%, the “% Injury Corn” value (corn [5]; [33]) was 55% and the “% Injury Corn” value (corn [5]; [34]) was 80%. For the same compound, the “% Injury Corn” value (corn [5]; [35]) was 55%, the “% Injury BYG” value [9, 28] was 100% and the “% Injury BYG” value [9, 29] was 100%. For the same compound, the “% Injury BYG” value [9, 30] was 100%, the “% Injury BYG” value [9, 31] was 100% and the “% Injury BYG” value [9, 32] was 95%. The “% Injury BYG” value [9, 33] was 100%, the “% Injury BYG” value [9, 34] was 100% and the “% Injury BYG” value [9, 35] was 100%. The “% Injury VL” value [10, 28] was 95%, the “% Injury VL” value [10, 29] was 95% and the “% Injury VL” value [10, 30] was 98%. For the same compound, the “% Injury VL” value [10, 31] was 98%, the “% Injury VL” value [10, 32] was 98% and the “% Injury VL” value [10, 33] was 95%. For the same compound, the “% Injury VL” value [10, 34] was 98% and the “% Injury VL” value [10, 35] was 99%.

With `O=C(C(Cl)Cl)N1CCCC12CCCC2` [Antidote No. 9, 1-Azaspiro[4,4]noname, 1-(dichloroacetyl)-] the “safening of corn, assessment in words” value (corn [11]) was “best safening effect across quadruple treatments” and the “safening of corn, assessment in words” value (corn [12]) was “best overall safening performance”.
